This assay concerns fibroblast (human, dermal). Nature of the assay: fibroblast contraction (human, dermal). The format is cell-based. The note with it: human dermal fibroblasts; even at low doses. The source says: Cortisone prevents fibroblast contraction (human, dermal) even at low doses (below 10^−6 M)

In the case of `C[C@]12CCC(=O)C=C1CC[C@@H]1[C@@H]2C(=O)C[C@@]2(C)[C@H]1CC[C@]2(O)C(=O)CO` [Cortisone, cortisone], the “dose preventing fibroblast contraction” value is “below 10^−6 M”.

Values taken from patent publication US7829110B2, “Surgical implant comprising an anabolic and a corticosteroid” (Ethicon, Inc., priority 2003, dated 2010).
